The text below walks through data of patent US9073864B2, “Aromatic ring compound” (TAKEDA PHARMACEUTICAL COMPANY LIMITED, priority 2012, dated 2015).

Each structure is given as a SMILES string.

The assay deals with T1, human type glucagon receptor (Homo sapiens, UniProt P47871).
T1 construct: an about 1.4 kb DNA fragment containing glucagon receptor gene was recovered from the gel; expressed in transfected cells; host or cells: FreeStyle CHO cells (transient expression); membrane fraction prepared by homogenisation and ultracentrifugation
T1 sequence (P47871 26-477): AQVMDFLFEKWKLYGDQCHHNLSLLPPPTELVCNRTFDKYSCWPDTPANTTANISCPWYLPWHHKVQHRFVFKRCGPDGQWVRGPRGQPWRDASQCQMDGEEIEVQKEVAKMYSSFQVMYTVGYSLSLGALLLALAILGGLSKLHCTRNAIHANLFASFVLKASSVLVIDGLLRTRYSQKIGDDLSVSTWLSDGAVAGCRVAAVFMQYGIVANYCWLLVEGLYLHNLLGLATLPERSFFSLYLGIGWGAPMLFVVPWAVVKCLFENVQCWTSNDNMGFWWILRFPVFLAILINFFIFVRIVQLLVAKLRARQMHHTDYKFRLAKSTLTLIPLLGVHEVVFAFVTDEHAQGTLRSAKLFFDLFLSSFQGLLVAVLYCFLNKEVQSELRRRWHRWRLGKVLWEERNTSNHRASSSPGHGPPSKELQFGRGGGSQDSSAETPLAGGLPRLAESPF
In words: Measurement of glucagon binding inhibitory activity ([125I]-glucagon, receptor membrane protein). The conditions noted are these: test compound 10 μM; 0.4% DMSO alone = 0%, unlabeled glucagon 1 μM = 100%; read-out: inhibitory rate (%) at 10 μM. The procedure:
The glucagon binding inhibitory action of the compound of the present invention was evaluated by the following method.
(1) Cloning of Human Glucagon Receptor Gene
Human glucagon receptor gene was cloned by PCR reaction using human pancreas Marathon-ready cDNA (Clontech Laboratories, Inc.) as a template and the following primer set.
The PCR reaction was performed using Advantage 2 polymerase (Clontech Laboratories, Inc.) and according to the attached protocol. The obtained PCR product was subjected to agarose gel (1%) electrophoresis, an about 1.4 kb DNA fragment containing glucagon receptor gene was recovered from the gel, and digested with restriction enzymes EcoRI and NotI. The restriction enzyme-treated DNA was subjected to agarose gel (1%) electrophoresis, an about 1.4 kb DNA fragment was recovered and ligated with plasmid pMSRaneo digested with restriction enzymes EcoRI and NotI to give human type glucagon receptor expression plasmid DNA “pMSRaneo/hGCGR”. The base sequence of the inserted fragment was confirmed to be identical with the object sequence.
(2) Preparation of Glucagon Receptor Membrane Protein
Human type glucagon receptor was expressed using FreeStyle CHO Expression System (Invitrogen™). According to the manual attached to the FreeStyle CHO Expression System, and using the human type glucagon receptor expression plasmid DNA “pMSRaneo/hGCGR” produced in the above-mentioned (1), transient expression was performed by FreeStyle CHO cells. The above-mentioned DNA was transfected, and shaking culture was performed at 37° C., 8% CO2, 125 rpm for 2 days. The culture medium was centrifuged at 2,000 rpm for 10 min and the cells were recovered. The recovered cells were washed with PBS, suspended in homogenate buffer [10 mM NaHCO3 (pH 7.4), 1 mM EDTA, complete EDTA-free (Roche, Ltd., 1 tablet/50 ml)], and the cells were disrupted by a Polytron cell disruption apparatus (Kinematica AG). The disruption solution was centrifuged at 2,000 rpm for 10 min, and the supernatant was recovered. The supernatant was centrifuged at 35,000 rpm for 60 min, and the precipitate was suspended in a buffer [20 mM Tris-HCl (pH 7.4), 5 mM EDTA, complete EDTA-free (Roche, Ltd., 1 tablet/50 ml)] to give a glucagon receptor membrane protein.
(3) Measurement of Glucagon Binding Inhibitory Activity
The reaction was started by adding 50 μl of a glucagon receptor membrane protein solution diluted with a reaction buffer [50 mM HEPES (pH 7.4), 5 mM EGTA, 5 mM magnesium chloride, 0.1% BSA, 0.005% Tween20] to 100 μg/ml, 25 μl of a test compound solution containing 0.4% DMSO, which solution was prepared with the reaction buffer to a compound concentration of 40 μM, and 25 μl of radiolabeled glucagon ([^125I]-Receptor Grade Glucagon; Perkin Elmer Inc.) diluted with the reaction buffer to 200 pM to each well of a 96 well plate (Corning Incorporated). The plate was stood at room temperature for 90 min, then the reaction solution was transferred from the reaction plate onto a 96 well unifilter GF/C plate (Perkin Elmer Inc.) by a cell harvester (Perkin Elmer Inc.), and suctioned to collect a membrane fraction on the filter. The filter was immersed in a 0.3% polyethyleneimine solution in advance to prevent non-specific adsorption of the labeled ligand. The filter was washed 4 times with the reaction buffer, and dried at 42° C. for 2 hr. To each well was added 25 μl of scintillator (MicroScint0; Perkin Elmer Inc.), and the amount of fluorescence was measured by a microplate scintillation counter (TopCount NXT™; Perkin Elmer Inc.).
The inhibitory rate (%) of the well added with the test compound (10 μM; containing 0.4% DMSO solution) was calculated wherein the reaction rate of the well added with 0.4% DMSO alone was 0% inhibitory rate and that of the well added with unlabeled glucagon (final concentration 1 μM) was 100% inhibitory rate.
As to `Cc1cc(-c2ccc(C(F)(F)F)nc2)ccc1C(CCC(F)(F)F)Nc1ccc(C(=O)N2CCC[C@@H](C(=O)O)C2)cc1` (mixture of isomers) [Example 9, (3R)-1-(4-((4,4,4-trifluoro-1-(2-methyl-4-(6-(trifluoromethyl)pyridin-3-yl)phenyl)butyl)amino)benzoyl)piperidine-3-carboxylic acid], the inhibition at 10 µM is 90%.
`Cc1cc(-c2ccc(C(F)(F)F)cn2)ccc1C(CCC(F)(F)F)Nc1ccc(C(=O)N2CCC[C@@H](C(=O)O)C2)cc1` (mixture of isomers) [Example 10, (3R)-1-(4-((4,4,4-trifluoro-1-(2-methyl-4-(5-(trifluoromethyl)pyridin-2-yl)phenyl)butyl)amino)benzoyl)piperidine-3-carboxylic acid]: the inhibition at 10 µM is 88%.
In the case of `Cc1cc(-c2ncc(C(F)(F)F)cn2)ccc1C(CCC(F)(F)F)Nc1ccc(C(=O)N2CCC[C@@H](C(=O)O)C2)cc1` (mixture of isomers) [Example 11, (3R)-1-(4-((4,4,4-trifluoro-1-(2-methyl-4-(5-(trifluoromethyl)pyrimidin-2-yl)phenyl)butyl)amino)benzoyl)piperidine-3-carboxylic acid], the inhibition at 10 µM turned out to be 93%.
As for `Cc1cc(-c2ncc(Cl)cn2)ccc1C(CCC(F)(F)F)Nc1ccc(C(=O)N2CCC[C@@H](C(=O)O)C2)cc1` (mixture of isomers) [Example 12, (3R)-1-(4-((1-(4-(5-chloropyrimidin-2-yl)-2-methylphenyl)-4,4,4-trifluorobutyl)amino)benzoyl)piperidine-3-carboxylic acid], the figure is 96%; as for `CCc1cnc(-c2ccc(C(CCC(F)(F)F)Nc3ccc(C(=O)N4CCC[C@@H](C(=O)O)C4)cc3)c(C)c2)nc1` (mixture of isomers) [Example 13, (3R)-1-(4-((1-(4-(5-ethylpyrimidin-2-yl)-2-methylphenyl)-4,4,4-trifluorobutyl)amino)benzoyl)piperidine-3-carboxylic acid], 84%.
The result for `Cc1cc(-n2ccc(C(C)C)n2)ccc1C(CCC(F)(F)F)Nc1ccc(C(=O)N2CCC[C@@H](C(=O)O)C2)cc1` (mixture of isomers) [Example 19, (3R)-1-(4-((4,4,4-trifluoro-1-(4-(3-isopropyl-1H-pyrazol-1-yl)-2-methylphenyl)butyl)amino)benzoyl)piperidine-3-carboxylic acid] reads 87%; that for `Cc1cc(-n2cc3c(n2)CCCC3)ccc1C(CCC(F)(F)F)Nc1ccc(C(=O)N2CCC[C@@H](C(=O)O)C2)cc1` (mixture of isomers) [Example 20, (3R)-1-(4-((4,4,4-trifluoro-1-(2-methyl-4-(4,5,6,7-tetrahydro-2H-indazol-2-yl)phenyl)butyl)amino)benzoyl)piperidine-3-carboxylic acid], 93%; that for `Cc1cc(-n2cc3c(n2)CCCC3)ccc1C(Nc1ccc(C(=O)N2CCC[C@@H](C(=O)O)C2)cc1)C(C)C` (mixture of isomers) [Example 116, (3R)-1-(4-((2-methyl-1-(2-methyl-4-(4,5,6,7-tetrahydro-2H-indazol-2-yl)phenyl)propyl)amino)benzoyl)piperidine-3-carboxylic acid], 90%.
As for `Cc1cc(-c2ccc(F)cc2)ccc1C(CCC(F)(F)F)Nc1ccc(C(=O)N2CCC[C@@H](C(=O)O)C2)cc1` (stereo partly drawn) [Example 5, (3R)-1-(4-((4,4,4-trifluoro-1-(4′-fluoro-3-methylbiphenyl-4-yl)butyl)amino)benzoyl)piperidine-3-carboxylic acid], the figure is 86%; as for `Cc1cc(-c2ccc(F)cc2)ccc1C(CCC(F)(F)F)Nc1ccc(C(=O)N2CCC[C@@H](C(=O)O)C2)cn1` (stereo partly drawn) [Example 6, (3R)-1-((6-((4,4,4-trifluoro-1-(4′-fluoro-3-methylbiphenyl-4-yl)butyl)amino)pyridin-3-yl)carbonyl)piperidine-3-carboxylic acid], 85%; as for `COc1ccc(-c2ccc(C(CCC(F)(F)F)Nc3ccc(C(=O)N4CCC[C@@H](C(=O)O)C4)cc3)c(C)c2)cc1` (stereo partly drawn) [Example 7, (3R)-1-(4-((4,4,4-trifluoro-1-(4′-methoxy-3-methylbiphenyl-4-yl)butyl)amino)benzoyl)piperidine-3-carboxylic acid], 91%.
As to `Cc1cc(-c2ccc(C#N)cc2)ccc1C(CCC(F)(F)F)Nc1ccc(C(=O)N2CCC[C@@H](C(=O)O)C2)cc1` (stereo partly drawn) [Example 8, (3R)-1-(4-((1-(4′-cyano-3-methylbiphenyl-4-yl)-4,4,4-trifluorobutyl)amino)benzoyl)piperidine-3-carboxylic acid], the inhibition at 10 µM is 91%.
As for `Cc1cc(-c2ccc(C(F)(F)F)nc2)ccc1C(CCC(F)(F)F)Nc1ccc(C(=O)N2CCC[C@@H](C(=O)O)C2)cc1` (stereo partly drawn) [Example 14, (3R)-1-(4-((4,4,4-trifluoro-1-(2-methyl-4-(6-(trifluoromethyl)pyridin-3-yl)phenyl)butyl)amino)benzoyl)piperidine-3-carboxylic acid], the figure is 88%; as for `Cc1cc(-c2ccc(Cl)cc2)ccc1C(CCC(F)(F)F)Nc1ccc(C(=O)N2CCC[C@@H](C(=O)O)C2)cn1` (stereo partly drawn) [Example 15, (3R)-1-((6-((1-(4′-chloro-3-methylbiphenyl-4-yl)-4,4,4-trifluorobutyl)amino)pyridin-3-yl)carbonyl)piperidine-3-carboxylic acid], 92%; as for `Cc1cc(-c2ccc(Cl)cc2)ccc1C(Nc1ccc(C(=O)N2CCC[C@@H](C(=O)O)C2)cc1)C1CCCCC1` (stereo partly drawn) [Example 16, (3R)-1-(4-(((4′-chloro-3-methylbiphenyl-4-yl)(cyclohexyl)methyl)amino)benzoyl)piperidine-3-carboxylic acid], 93%.
The result for `Cc1cc(-c2ccc(Cl)cc2)ccc1C(Nc1ccc(C(=O)N2CCC[C@@H](C(=O)O)C2)cn1)C1CCCCC1` (stereo partly drawn) [Example 17, (3R)-1-((6-(((4′-chloro-3-methylbiphenyl-4-yl)(cyclohexyl)methyl)amino)pyridin-3-yl)carbonyl)piperidine-3-carboxylic acid] reads 92%.
With `Cc1cc(C(CCC(F)(F)F)Nc2ccc(C(=O)N3CCC[C@@H](C(=O)O)C3)cc2)cc(C)c1-c1ccc(Cl)cc1` (stereo partly drawn) [Example 18, (3R)-1-(4-((1-(4′-chloro-2,6-dimethylbiphenyl-4-yl)-4,4,4-trifluorobutyl)amino)benzoyl)piperidine-3-carboxylic acid], the inhibition at 10 µM worked out at 86%.
The result for `Cc1cc(-n2ccc(C(C)C)n2)ccc1C(CCC(F)(F)F)Nc1ccc(C(=O)N2CCC[C@@H](C(=O)O)C2)cc1` (stereo partly drawn) [Example 22, (3R)-1-(4-((4,4,4-trifluoro-1-(4-(3-isopropyl-1H-pyrazol-1-yl)-2-methylphenyl)butyl)amino)benzoyl)piperidine-3-carboxylic acid] reads 89%; that for `Cc1cc(-c2ncc(C(C)(C)C)o2)ccc1C(CCC(F)(F)F)Nc1ccc(C(=O)N2CCC[C@@H](C(=O)O)C2)cc1` (stereo partly drawn) [Example 23, (3R)-1-(4-((1-(4-(5-tert-butyl-1,3-oxazol-2-yl)-2-methylphenyl)-4,4,4-trifluorobutyl)amino)benzoyl)piperidine-3-carboxylic acid], 90%; that for `O=C(O)[C@@H]1CCCN(C(=O)c2ccc(NC(c3ccc(-c4ccc(Cl)cc4)cc3)C3CCCCC3)cc2)C1` (stereo partly drawn) [Example 24, (3R)-1-(4-(((4′-chlorobiphenyl-4-yl)(cyclohexyl)methyl)amino)benzoyl)piperidine-3-carboxylic acid], 84%.
